Assay results reported in patent publication US8772480B2, “Inhibitors of PI3 kinase and/or mTOR” (priority 2009, dated 2014).
Like-named read-outs stand apart in the source and are kept apart here.

Assays:
[1] = system: phosphorylation of Akt at Serine 473 in U87 MG cells; experiment: cells; details: Homo sapiens, U-87 MG, 2 h, read-out: U87Cell IC50, pAkt (Ser 473), U87 MG cells, two hours with compound
[2] = biological target: human mutant B-raf (HuBraf V600E) (Homo sapiens (Human), UniProt P15056, V600E); details: at 10 μM compound concentration; POC = 100 − percent inhibition
[3] = biological target: T1, PI3Kα (Homo sapiens (Human), UniProt P42336); details: read-out: PI3Kα AlphaScreen ® Ki
[4] = biological target: T1, PI3Kα; experiment: biochemical; details: PI3Kα AlphaScreen ® Ki

Sequence of human mutant B-raf (HuBraf V600E) (P15056 whole entry V600E): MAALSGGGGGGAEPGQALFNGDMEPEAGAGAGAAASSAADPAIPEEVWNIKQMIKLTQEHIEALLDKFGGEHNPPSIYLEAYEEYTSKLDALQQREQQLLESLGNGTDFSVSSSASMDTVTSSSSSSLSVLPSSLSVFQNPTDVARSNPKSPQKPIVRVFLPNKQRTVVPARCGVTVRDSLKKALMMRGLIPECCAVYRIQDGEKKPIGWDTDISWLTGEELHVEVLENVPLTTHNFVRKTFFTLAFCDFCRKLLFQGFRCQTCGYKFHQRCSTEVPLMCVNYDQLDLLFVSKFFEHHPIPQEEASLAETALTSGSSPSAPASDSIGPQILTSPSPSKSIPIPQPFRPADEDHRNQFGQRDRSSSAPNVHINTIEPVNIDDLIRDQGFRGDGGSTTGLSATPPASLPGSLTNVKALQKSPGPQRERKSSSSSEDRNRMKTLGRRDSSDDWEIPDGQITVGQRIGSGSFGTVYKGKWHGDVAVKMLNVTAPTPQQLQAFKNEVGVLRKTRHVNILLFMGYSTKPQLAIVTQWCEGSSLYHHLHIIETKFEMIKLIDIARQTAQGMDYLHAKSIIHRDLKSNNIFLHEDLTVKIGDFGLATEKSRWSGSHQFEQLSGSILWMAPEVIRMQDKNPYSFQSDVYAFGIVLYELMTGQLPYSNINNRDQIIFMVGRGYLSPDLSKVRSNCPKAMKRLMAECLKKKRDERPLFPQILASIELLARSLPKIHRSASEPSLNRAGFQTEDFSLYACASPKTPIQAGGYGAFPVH
T1 sequence (P42336 whole entry): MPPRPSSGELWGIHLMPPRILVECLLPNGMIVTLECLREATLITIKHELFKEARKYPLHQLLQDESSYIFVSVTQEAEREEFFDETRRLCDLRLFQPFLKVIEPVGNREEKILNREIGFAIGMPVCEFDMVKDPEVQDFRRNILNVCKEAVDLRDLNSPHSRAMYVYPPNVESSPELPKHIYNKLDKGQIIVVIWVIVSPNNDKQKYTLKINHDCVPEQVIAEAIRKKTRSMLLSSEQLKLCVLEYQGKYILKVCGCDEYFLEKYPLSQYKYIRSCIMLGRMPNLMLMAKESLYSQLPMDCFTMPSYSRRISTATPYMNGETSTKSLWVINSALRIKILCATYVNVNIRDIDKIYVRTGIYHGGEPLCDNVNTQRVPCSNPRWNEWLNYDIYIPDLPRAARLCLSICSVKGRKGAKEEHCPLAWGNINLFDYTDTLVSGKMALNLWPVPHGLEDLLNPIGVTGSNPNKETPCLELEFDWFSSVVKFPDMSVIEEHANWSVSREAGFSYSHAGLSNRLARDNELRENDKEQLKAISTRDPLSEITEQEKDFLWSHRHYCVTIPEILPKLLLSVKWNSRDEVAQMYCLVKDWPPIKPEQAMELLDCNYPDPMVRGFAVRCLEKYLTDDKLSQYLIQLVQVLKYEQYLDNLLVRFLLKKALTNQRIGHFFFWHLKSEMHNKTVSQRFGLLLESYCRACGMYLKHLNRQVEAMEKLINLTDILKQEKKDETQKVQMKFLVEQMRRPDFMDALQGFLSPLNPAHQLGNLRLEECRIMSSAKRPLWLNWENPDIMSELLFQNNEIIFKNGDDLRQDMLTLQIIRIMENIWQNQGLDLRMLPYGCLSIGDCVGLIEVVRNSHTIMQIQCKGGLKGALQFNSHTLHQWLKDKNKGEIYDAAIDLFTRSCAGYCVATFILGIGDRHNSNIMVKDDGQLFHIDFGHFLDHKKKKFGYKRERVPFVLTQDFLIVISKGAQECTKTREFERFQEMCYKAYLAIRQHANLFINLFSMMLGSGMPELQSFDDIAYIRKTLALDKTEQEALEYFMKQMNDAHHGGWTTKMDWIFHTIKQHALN
T1 sequence (P27986 whole entry partner): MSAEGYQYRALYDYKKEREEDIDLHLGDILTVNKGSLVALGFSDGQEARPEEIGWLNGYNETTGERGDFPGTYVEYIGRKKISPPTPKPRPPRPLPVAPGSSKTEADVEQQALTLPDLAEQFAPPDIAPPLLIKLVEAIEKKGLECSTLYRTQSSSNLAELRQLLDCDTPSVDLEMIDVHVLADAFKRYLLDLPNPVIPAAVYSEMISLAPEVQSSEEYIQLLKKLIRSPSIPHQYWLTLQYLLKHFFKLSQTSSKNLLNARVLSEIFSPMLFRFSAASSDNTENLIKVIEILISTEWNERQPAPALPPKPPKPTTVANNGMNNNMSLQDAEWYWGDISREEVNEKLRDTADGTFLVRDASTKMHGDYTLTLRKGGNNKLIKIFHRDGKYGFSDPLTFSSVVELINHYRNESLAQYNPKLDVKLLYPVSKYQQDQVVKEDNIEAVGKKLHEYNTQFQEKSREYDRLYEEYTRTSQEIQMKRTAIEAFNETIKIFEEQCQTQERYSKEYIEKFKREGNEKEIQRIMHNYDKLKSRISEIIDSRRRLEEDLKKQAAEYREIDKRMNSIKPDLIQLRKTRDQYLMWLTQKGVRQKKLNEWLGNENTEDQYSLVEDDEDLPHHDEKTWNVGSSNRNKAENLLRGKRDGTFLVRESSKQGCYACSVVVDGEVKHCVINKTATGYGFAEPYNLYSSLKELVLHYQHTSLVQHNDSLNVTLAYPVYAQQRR

IC50 [1] | Mutant B-raf HTRF Assay POC Mean n = 2 [2] | Ki [3] | Ki [4] | SMILES
173 nM | 103% of Control (POC) | 62 nM |  | COc1ncc(Nc2ncccc2-c2nc(C)nc3[nH]cnc23)cn1 [Example 66, 2-Methoxy-N-(3-(2-Methyl-9H-Purin-6-yl)Pyridin-2-yl)Pyrimidin-5-Amine]
 | 84% of Control (POC) | 24 nM |  | Cc1nc(N)cc(-c2cccnc2Nc2cccc(O)c2)n1 [Example 26, 3-(3-(6-Amino-2-Methylpyrimidin-4-yl)Pyridin-2-Ylamino)Phenol]
129 nM | 99% of Control (POC) | 9 nM |  | COc1ccc(Nc2cnc(Nc3ccc(OC)nc3)c(-c3nc(C)nc4[nH]cnc34)c2)cc1 [Example 90, N5-(4-methoxyphenyl)-N2-(6-methoxypyridin-3-yl)-3-(2-methyl-9H-purin-6-yl)pyridine-2,5-diamine]
821 nM | 35% of Control (POC) |  |  | Cc1nc(N)cc(-c2cnccc2Nc2cccc3[nH]ccc23)n1 [Example 109, N-(3-(6-amino-2-methylpyrimidin-4-yl)pyridin-4-yl)-1H-indol-4-amine]
 | 103% of Control (POC) | 1410 nM |  | Cc1nc(-c2cccnc2Nc2cccc3[nH]ncc23)c2cn[nH]c2n1 [Example 55, N-(3-(6-methyl-1H-pyrazolo[3,4-d]pyrimidin-4-yl)pyridin-2-yl)-1H-indazol-4-amine]
133 nM | 90% of Control (POC) | 19 nM |  | COc1ccc(Nc2ncc(CN3CCN(S(C)(=O)=O)CC3)cc2-c2nc(C)nc3[nH]cnc23)cn1 [Example 85, N-(6-methoxypyridin-3-yl)-3-(2-methyl-9H-purin-6-yl)-5-((4-(methylsulfonyl)piperazin-1-yl)methyl)pyridin-2-amine]
195 nM | 108% of Control (POC) | 44 nM |  | COc1ccc(Nc2ncc(CO)cc2-c2nc(C)nc3[nH]cnc23)cn1 [Example 76, (6-(6-Methoxypyridin-3-Ylamino)-5-(2-Methyl-9H-Purin-6-yl)Pyridin-3-yl)Methanol]
441 nM | 96% of Control (POC) | 107 nM |  | COc1ccc(Nc2ncc(N3CCOCC3)cc2-c2nc(C)nc3[nH]cnc23)cn1 [Example 97]
 | 94% of Control (POC) |  |  | COc1cnc(Nc2ccc(OC)nc2)c(-c2nc(C)nc(N)n2)c1 [Example 33, 4-(5-Methoxy-2-(6-Methoxypyridin-3-Ylamino)Pyridin-3-yl)-6-Methyl-1,3,5-Triazin-2-Amine]
 |  |  | 7 nM | COc1ncc(Nc2ncc(C(C)CO)cc2-c2nc(C)nc(N)n2)cc1F (single isomer, unassigned) [312 Second eluting, 2-(5-(4-Amino-6-methyl-1,3,5-triazin-2-yl)-6-(5-fluoro-6-methoxypyridin-3-ylamino)pyridin-3-yl)propan-1-ol]
 | 95% of Control (POC) |  |  | COc1ccc(Nc2ncccc2-c2nc(C)nc(N)n2)cn1 [Example 25, 4-(2-(6-Methoxypyridin-3-Ylamino)Pyridin-3-yl)-6-Methyl-1,3,5-Triazin-2-Amine]
 | 98% of Control (POC) |  |  | COc1ccc(Nc2ncc(CN3CCN(S(C)(=O)=O)CC3)cc2-c2nc(C)nc(N)n2)cn1 [Example 35, 4-(2-(6-methoxypyridin-3-ylamino)-5-((4-(methylsulfonyl)piperazin-1-yl)methyl)pyridin-3-yl)-6-methyl-1,3,5-triazin-2-amine]
 | 97% of Control (POC) |  |  | COc1ccc(Nc2ncc(C)cc2-c2nc(C)nc(N)n2)cn1 [Example 31, 4-(2-(6-Methoxypyridin-3-Ylamino)-5-Methylpyridin-3-yl)-6-Methyl-1,3,5-Triazin-2-Amine]
554 nM | 108% of Control (POC) |  |  | C=Cc1cnc(Nc2ccc(OC)nc2)c(-c2nc(C)nc3[nH]cnc23)c1 [Example 73, N-(6-methoxypyridin-3-yl)-3-(2-methyl-9H-purin-6-yl)-5-vinylpyridin-2-amine]
587 nM | 107% of Control (POC) | 191 nM |  | Cc1cnc(Nc2cccnc2)c(-c2nc(C)nc(N)n2)c1 [Example 32, Methyl-6-(5-Methyl-2-(Pyridin-3-Ylamino)Pyridin-3-yl)-1,3,5-Triazin-2-Amine]
8530 nM | 77% of Control (POC) | 33 nM |  | Cc1nc(-c2cc(CO)cnc2Nc2cccc3[nH]ncc23)c2nc[nH]c2n1 [Example 72, (6-(1H-indazol-4-ylamino)-5-(2-methyl-9H-purin-6-yl)pyridin-3-yl)methanol]

IC50 [1] | Mutant B-raf HTRF Assay POC Mean n = 2 [2] | Ki [3] | Ki [4] | SMILES
 |  |  | 9 nM | COc1ncc(Nc2ncc(C(C)CO)cc2-c2nc(C)nc(N)n2)cc1F (single isomer, unassigned) [312 First eluting, 2-(5-(4-Amino-6-methyl-1,3,5-triazin-2-yl)-6-(5-fluoro-6-methoxypyridin-3-ylamino)pyridin-3-yl)propan-1-ol]
1190 nM | 75% of Control (POC) | 402 nM |  | COc1ccc(COCc2cnc(Nc3cccc4[nH]ccc34)c(-c3nc(C)nc4[nH]cnc34)c2)cc1 [Example 71, N-(5-((4-methoxybenzyloxy)methyl)-3-(2-methyl-9H-purin-6-yl)pyridin-2-yl)-1H-indol-4-amine]
3630 nM | 66% of Control (POC) | 720 nM |  | Cc1nc(-c2cc(Cl)cnc2Nc2cccc3[nH]ncc23)c2nc[nH]c2n1 [Example 61, N-(5-Chloro-3-(2-methyl-9H-purin-6-yl)pyridin-2-yl)-1H-indazol-4-amine]
 | 42% of Control (POC) | > 1500 nM |  | CC(=O)Nc1ccc(Nc2ncccc2-c2ncnc3[nH]cnc23)cn1 [Example 16, N-(5-(3-(9H-Purin-6-yl)Pyridin-2-Ylamino)Pyridin-2-yl)Acetamide]
 | 94% of Control (POC) |  |  | COc1ccc(Nc2ncc(CN3CCOCC3)cc2-c2nc(C)nc(N)n2)cn1 [Example 44, 4-(2-(6-methoxypyridin-3-ylamino)-5-(morpholinomethyl)pyridin-3-yl)-6-methyl-1,3,5-triazin-2-amine]
 | 96% of Control (POC) |  |  | COc1ccc(Nc2ncc(CN3CCNCC3)cc2-c2nc(C)nc(N)n2)cn1 [Example 41, 4-(2-(6-methoxypyridin-3-ylamino)-5-(piperazin-1-ylmethyl)pyridin-3-yl)-6-methyl-1,3,5-triazin-2-amine]
 | 38% of Control (POC) | > 1500 nM |  | Nc1ccc(Nc2ncccc2-c2ncnc3[nH]cnc23)cn1 [Example 17, N3-(3-(9H-Purin-6-yl)Pyridin-2-yl)Pyridine-3,6-Diamine]
 | 94% of Control (POC) |  |  | Cc1nc(N)nc(-c2cccnc2Nc2cccc3[nH]ncc23)n1 [Example 24, N-(3-(4-Amino-6-Methyl-1,3,5-Triazin-2-yl)Pyridin-2-yl)-1H-Indazol-4-Amine]
179 nM | 94% of Control (POC) | 23 nM |  | COc1ccc(Nc2ncc(CCO)cc2-c2nc(C)nc3[nH]cnc23)cn1 [Example 75, 2-(6-(6-methoxypyridin-3-ylamino)-5-(2-methyl-9H-purin-6-yl)pyridin-3-yl)ethanol]
3070 nM | 87% of Control (POC) | 1330 nM |  | Cc1nc(N)nc(-c2cccnc2Nc2ccc(N)nc2)n1 [Example 50, N5-(3-(4-Amino-6-Methyl-1,3,5-Triazin-2-yl)Pyridin-2-yl)Pyridine-2,5-Diamine]
1910 nM | 97% of Control (POC) | 97 nM |  | COc1ccc(Nc2ncc(CN3CCNCC3)cc2-c2nc(C)nc3[nH]cnc23)cn1 [Example 84, N-(6-methoxypyridin-3-yl)-3-(2-methyl-9H-purin-6-yl)-5-(piperazin-1-ylmethyl)pyridin-2-amine]
 | 58% of Control (POC) |  |  | Cc1nc(-c2cccnc2Nc2cccc3[nH]ccc23)c2nc[nH]c2n1 [Example 56, N-(3-(2-methyl-9H-purin-6-yl)pyridin-2-yl)-1H-indol-4-amine]
1540 nM | 62% of Control (POC) | 359 nM |  | Cc1nc(N)cc(-c2cnccc2Nc2cccc3[nH]ncc23)n1 [Example 107, N-(3-(6-amino-2-methylpyrimidin-4-yl)pyridin-4-yl)-1H-indazol-4-amine]
> 10000 nM | 107% of Control (POC) | 50 nM |  | Cc1nc(-c2cc(Br)cnc2Nc2cccc3[nH]ncc23)c2nc[nH]c2n1 [Example 64, N-(5-bromo-3-(2-methyl-9H-purin-6-yl)pyridin-2-yl)-1H-indazol-4-amine]
364 nM |  | 279 nM |  | Cc1nc(N)nc(-c2cccnc2Nc2cnc(C)c(NS(C)(=O)=O)c2)n1 [Example 377, N-(5-(3-(4-Amino-6-Methyl-1,3,5-Triazin-2-yl)Pyridin-2-Ylamino)-2-Methylpyridin-3-yl)Methanesulfonamide]
181 nM |  | 40 nM |  | COc1ccc(Nc2ncc(CNCc3ccncc3)cc2-c2nc(C)nc3[nH]cnc23)cn1 [Example 137, N-(6-methoxypyridin-3-yl)-3-(2-methyl-9H-purin-6-yl)-5-((pyridin-4-ylmethylamino)methyl)pyridin-2-amine]

SMILES | IC50 [1] | Mutant B-raf HTRF Assay POC Mean n = 2 [2] | Ki [3] | Ki [4]
Cc1nc(-c2cc(C(F)(F)F)cnc2Nc2cccc3[nH]ncc23)c2nc[nH]c2n1 [Example 65, N-(3-(2-Methyl-9H-Purin-6-yl)-5-(Trifluoromethyl)Pyridine-2-yl)-1H-Indazol-4-Amine] |  | 85% of Control (POC) | 119 nM | 
